This note sets out measurements from the SangsterLogP compilation.

The logP is the decadic logarithm of the partition coefficient of the neutral form, usually between octanol and water. A higher logP goes with higher lipophilicity.

Compound `N#Cc1c[nH]cc1-c1cccc2c1OC(F)(F)O2` came in with a logP of 4.16.

In turn, `Nc1ccc(C(F)(F)F)cc1` returned a logP of 2.31.

Compound `CC(C)(C)[C@H](O)[C@H](Cc1ccc(Cl)cc1)n1cncn1` had a logP of 3.09.

Regarding `CC1COC(Cn2cncn2)(c2ccc(Oc3ccc(Cl)cc3)cc2Cl)O1` (stereo not given), the lipophilicity (logP) turned out to be 4.24.

With `COc1c(Cl)ccc(Cl)c1C(=O)O`, the logP worked out at 2.52.

Take `CC(C)Oc1cccc(NC(=O)c2ccccc2C(F)(F)F)c1`: the logP was 3.59.

As to `C[Si](Cn1cncn1)(c1ccc(F)cc1)c1ccc(F)cc1`, the logP is 3.76.

`FC(F)C(F)(F)OCC(Cn1cncn1)c1ccc(Cl)cc1Cl` (stereo not given) displayed a logP of 3.49.

`COC(=O)c1ccccc1S(=O)(=O)NC(=O)Nc1nc(OC(F)F)cc(OC(F)F)n1` came in with a logP of 3.49.

`CO/C=C(/C(=O)OC)c1ccccc1COc1cc(C(F)(F)F)nc(OC(C)C)n1` came in with a logP of 4.18.

`CCCCc1c(C)nc(NCC)[nH]c1=O` came in with a logP of 2.23.

The compound `CCCCOC(=O)c1ccccc1C(=O)OCCCC` had a logP of 4.46.

Compound `CC(C)N(C(=O)CCl)c1ccccc1` registered a logP of 2.12.

On to `CCOC(=O)c1ccc([N+](=O)[O-])cc1`, for which the logP came out at 2.43.

As for `CC(C)(C)C(O)C(Cc1ccc(Cl)cc1Cl)n1cncn1` (stereo not given), the logP was found to be 3.69.
